Experimental data from patent publication US6525001B1, “Substituted pyrimidine and pyridine herbicides” (Mid-American Commercialization Corporation, priority 1997, dated 2003).

Tests used:
Assay in all cases: Test D
Format in all cases: in vivo
[1] = test system: Italian ryegrass (Lolium multiflorum); details: PREEMERGENCE
kochia (Kochia scoparia) = test system: kochia (Kochia scoparia); design: key: 0 is no effect; 100 is complete control; details: PREEMERGENCE
[2] = test system: galium 2 (Galium aparine); design: key: 0 is no effect; 100 is complete control; details: PREEMERGENCE
[3] = test system: sunflower (Helianthus annuus); details: POSTEMERGENCE
Description: (§1) Compounds evaluated in this test were formulated in a non-phytotoxic solvent mixture which included a surfactant and applied to plants that were in the 1- to 4-leaf stage (postemergence application). A mixture of sandy loam soil and greenhouse potting mix in a 60:40 ratio was used for the postemergence test.
(§2) Plantings of these crops and weed species were adjusted to produce plants of appropriate size for the postemergence test. All plant species were grown using normal greenhouse practices. Crop and weed species include alfalfa (Medicago sativa), annual bluegrass (Poa annua), blackgrass (Alopecurus myosuroides), black nightshade (Solanum nigra), chickweed (Stellaria media), common poppy (Papaver rhoeas), deadnettle (Lamium amplexicaule), downy brome (Bromus tectorum), field violet (Viola arvensis), galium 2 (Galium aparine), green foxtail (Setaria viridis), Italian ryegrass (Lolium multiflorum), jointed goatgrass (Aegilops cylindrica), kochia (Kochia scoparia), lambsquarters (Chenopodium album), lentil (Lens culinaris), littleseed canarygrass (Phalaris minor), pea (Pisum sativum), potato (Solanum tuberosum), rape (Brassica napus), redroot pigweed (Amaranthus retroflexus), Russian thistle (Salsola kali), scentless chamomile (Matricaria inodora), sorghum (Sorghum vulgare), spring barley (Hordeum vulgare), sugar beet (Beta vulgaris), sunflower (Helianthus annuus), ivyleaf speedwell (Veronica hederaefolia), spring wheat (Triticum aestivum), winter wheat (Triticum aestivum), wild buckwheat (Polygonum convolvulus), wild mustard (Sinapis arvensis), wild oat (Avena fatua), windgrass (Apera spica-venti) and winter barley (Hordeum vulgare).
(§3) Treated plants and untreated controls were maintained in a greenhouse for approximately 21 to 28 days, after which all treated plants were compared to untreated controls and visually evaluated. Plant response ratings, summarized in Table D, are based upon a 0 to 100 scale where 0 is no effect and 100 is complete control. A dash response (−) means no test result.

[4] = test system: jointed goatgrass (Aegilops cylindrica); details: POSTEMERGENCE
Description: as §1, §2, §3

[5] = test system: spring barley (Hordeum vulgare); details: POSTEMERGENCE
Description: as §1, §2, §3

[6] = test system: scentless chamomile (Matricaria inodora); details: POSTEMERGENCE
Description: as §1, §2, §3

[7] = test system: annual bluegrass (Poa annua); details: POSTEMERGENCE
Description: as §1, §2, §3

[8] = test system: winter wheat (Triticum aestivum); details: POSTEMERGENCE
Description: as §1, §2, §3

[9] = test system: littleseed canarygrass (Phalaris minor); details: POSTEMERGENCE
Description: as §1, §2, §3

wild oat (Avena fatua) = details: POSTEMERGENCE
Description: as §1, §2, §3

[10] = test system: green foxtail (Setaria viridis); details: POSTEMERGENCE
Description: as §1, §2, §3

[11] = test system: spring wheat (Triticum aestivum); design: key to Plant response rating, Spring Wheat: 0 is no effect; details: PREEMERGENCE
[12] = test system: windgrass (Apera spica-venti); design: key: 0 is no effect; 100 is complete control; details: PREEMERGENCE
[13] = test system: wild buckwheat (Polygonum convolvulus); details: PREEMERGENCE
[14] = test system: downy brome (Bromus tectorum); details: PREEMERGENCE
[15] = test system: blackgrass (Alopecurus myosuroides); details: PREEMERGENCE
[16] = test system: lambsquarters (Chenopodium album); details: POSTEMERGENCE
Description: as §1, §2, §3

[17] = test system: redroot pigweed (Amaranthus retroflexus); design: key: 0 is no effect; 100 is complete control; details: PREEMERGENCE
[18] = test system: jointed goatgrass (Aegilops cylindrica); design: key: 0 is no effect; details: PREEMERGENCE
[19] = test system: lambsquarters (Chenopodium album); design: key: 0 is no effect; 100 is complete control; details: PREEMERGENCE

CCc1cnc(-c2ccc(C(F)(F)F)cc2)nc1Cc1cccc(C(F)(F)F)c1 [Compound 22]
Plant response rating, I. Ryegrass ([1]; Rate 125 g/ha): 65 | Plant response rating, I. Ryegrass ([1]; Rate 250 g/ha): 75 | Plant response rating, Kochia (kochia (Kochia scoparia); Rate 62 g/ha): 10 | Plant response rating, Kochia (kochia (Kochia scoparia); Rate 125 g/ha): 65 | Plant response rating, Kochia (kochia (Kochia scoparia); Rate 250 g/ha): 60 | Plant response rating, Galium ([2]; Rate 62 g/ha): 20 | Plant response rating, Galium ([2]; Rate 125 g/ha): 100 | Plant response rating, Galium ([2]; Rate 250 g/ha): 30 | Plant response rating, Sunflower ([3]; Rate 62 g/ha): 10 | Plant response rating, Sunflower ([3]; Rate 125 g/ha): 20 | Plant response rating, Jointed goatgra ([4]; Rate 62 g/ha): 10 | Plant response rating, Jointed goatgra ([4]; Rate 125 g/ha): 15 | Plant response rating, Spring Barley ([5]; Rate 62 g/ha): 10 | Plant response rating, Spring Barley ([5]; Rate 125 g/ha): 20 | Plant response rating, Scentless chamo ([6]; Rate 62 g/ha): 50 | Plant response rating, Scentless chamo ([6]; Rate 125 g/ha): 80 | Plant response rating, Annual bluegras ([7]; Rate 62 g/ha): 30 | Plant response rating, Annual bluegras ([7]; Rate 125 g/ha): 70 | Plant response rating, Wheat (winter) ([8]; Rate 62 g/ha): 10 | Plant response rating, Wheat (winter) ([8]; Rate 125 g/ha): 10 | Plant response rating, LS canarygrass ([9]; Rate 62 g/ha): 20 | Plant response rating, LS canarygrass ([9]; Rate 125 g/ha): 60 | Plant response rating, Wild oat (wild oat (Avena fatua); Rate 62 g/ha): 20 | Plant response rating, Wild oat (wild oat (Avena fatua); Rate 125 g/ha): 65 | Plant response rating, Green foxtail ([10]; Rate 62 g/ha): 10 | Plant response rating, Green foxtail ([10]; Rate 125 g/ha): 35 | Plant response rating, Spring Wheat ([11]; Rate 62 g/ha): 0 | Plant response rating, Spring Wheat ([11]; Rate 125 g/ha): 10 | Plant response rating, Spring Wheat ([11]; Rate 250 g/ha): 5 | Plant response rating, Windgrass ([12]; Rate 62 g/ha): 20 | Plant response rating, Windgrass ([12]; Rate 125 g/ha): 70 | Plant response rating, Windgrass ([12]; Rate 250 g/ha): 30 | Plant response rating, Wild buckwheat ([13]; Rate 125 g/ha): 55 | Plant response rating, Wild buckwheat ([13]; Rate 250 g/ha): 30 | Plant response rating, Downy brome ([14]; Rate 250 g/ha): 10 | Plant response rating, Blackgrass ([15]; Rate 62 g/ha): 30 | Plant response rating, Blackgrass ([15]; Rate 125 g/ha): 60 | Plant response rating, Blackgrass ([15]; Rate 250 g/ha): 40 | Plant response rating, Lambsquarters ([16]; Rate 62 g/ha): 60 | Plant response rating, Lambsquarters ([16]; Rate 125 g/ha): 60 | Plant response rating, Redroot pigweed ([17]; Rate 62 g/ha): 60 | Plant response rating, Redroot pigweed ([17]; Rate 125 g/ha): 100 | Plant response rating, Redroot pigweed ([17]; Rate 250 g/ha): 70 | Plant response rating, Jointed goatgra ([18]; Rate 62 g/ha): 0 | Plant response rating, Jointed goatgra ([18]; Rate 125 g/ha): 20 | Plant response rating, Jointed goatgra ([18]; Rate 250 g/ha): 10 | Plant response rating, Lambsquarters ([19]; Rate 62 g/ha): 60 | Plant response rating, Lambsquarters ([19]; Rate 125 g/ha): 70 | Plant response rating, Lambsquarters ([19]; Rate 250 g/ha): 70

Cc1cnc(-n2ccc(C(F)(F)F)n2)nc1Cn1ccc(C(F)(F)F)n1 [Compound 52]
Plant response rating, I. Ryegrass ([1]; Rate 31 g/ha): 30 | Plant response rating, I. Ryegrass ([1]; Rate 62 g/ha): 70 | Plant response rating, I. Ryegrass ([1]; Rate 125 g/ha): 70 | Plant response rating, Kochia (kochia (Kochia scoparia); Rate 31 g/ha): 50 | Plant response rating, Kochia (kochia (Kochia scoparia); Rate 62 g/ha): 80 | Plant response rating, Kochia (kochia (Kochia scoparia); Rate 125 g/ha): 100 | Plant response rating, Sunflower ([3]; Rate 16 g/ha): 40 | Plant response rating, Sunflower ([3]; Rate 31 g/ha): 20 | Plant response rating, Sunflower ([3]; Rate 62 g/ha): 50 | Plant response rating, Sunflower ([3]; Rate 125 g/ha): 70 | Plant response rating, Jointed goatgra ([4]; Rate 16 g/ha): 10 | Plant response rating, Jointed goatgra ([4]; Rate 31 g/ha): 10 | Plant response rating, Jointed goatgra ([4]; Rate 62 g/ha): 10 | Plant response rating, Jointed goatgra ([4]; Rate 125 g/ha): 10 | Plant response rating, Spring Barley ([5]; Rate 16 g/ha): 10 | Plant response rating, Spring Barley ([5]; Rate 31 g/ha): 10 | Plant response rating, Spring Barley ([5]; Rate 62 g/ha): 10 | Plant response rating, Spring Barley ([5]; Rate 125 g/ha): 10 | Plant response rating, Scentless chamo ([6]; Rate 16 g/ha): 30 | Plant response rating, Scentless chamo ([6]; Rate 31 g/ha): 50 | Plant response rating, Scentless chamo ([6]; Rate 62 g/ha): 60 | Plant response rating, Scentless chamo ([6]; Rate 125 g/ha): 70 | Plant response rating, Annual bluegras ([7]; Rate 16 g/ha): 10 | Plant response rating, Annual bluegras ([7]; Rate 31 g/ha): 20 | Plant response rating, Annual bluegras ([7]; Rate 62 g/ha): 20 | Plant response rating, Annual bluegras ([7]; Rate 125 g/ha): 50 | Plant response rating, Wheat (winter) ([8]; Rate 16 g/ha): 10 | Plant response rating, Wheat (winter) ([8]; Rate 31 g/ha): 10 | Plant response rating, Wheat (winter) ([8]; Rate 62 g/ha): 10 | Plant response rating, Wheat (winter) ([8]; Rate 125 g/ha): 10 | Plant response rating, LS canarygrass ([9]; Rate 16 g/ha): 10 | Plant response rating, LS canarygrass ([9]; Rate 31 g/ha): 10 | Plant response rating, LS canarygrass ([9]; Rate 62 g/ha): 10 | Plant response rating, LS canarygrass ([9]; Rate 125 g/ha): 20 | Plant response rating, Wild oat (wild oat (Avena fatua); Rate 16 g/ha): 10 | Plant response rating, Wild oat (wild oat (Avena fatua); Rate 31 g/ha): 10 | Plant response rating, Wild oat (wild oat (Avena fatua); Rate 62 g/ha): 10 | Plant response rating, Wild oat (wild oat (Avena fatua); Rate 125 g/ha): 10 | Plant response rating, Green foxtail ([10]; Rate 16 g/ha): 10 | Plant response rating, Green foxtail ([10]; Rate 31 g/ha): 10 | Plant response rating, Green foxtail ([10]; Rate 62 g/ha): 10 | Plant response rating, Green foxtail ([10]; Rate 125 g/ha): 30 | Plant response rating, Spring Wheat ([11]; Rate 31 g/ha): 60 | Plant response rating, Spring Wheat ([11]; Rate 62 g/ha): 70 | Plant response rating, Spring Wheat ([11]; Rate 125 g/ha): 70 | Plant response rating, Windgrass ([12]; Rate 31 g/ha): 80 | Plant response rating, Windgrass ([12]; Rate 62 g/ha): 100 | Plant response rating, Windgrass ([12]; Rate 125 g/ha): 100 | Plant response rating, Wild buckwheat ([13]; Rate 31 g/ha): 40 | Plant response rating, Wild buckwheat ([13]; Rate 62 g/ha): 60 | Plant response rating, Downy brome ([14]; Rate 31 g/ha): 30 | Plant response rating, Downy brome ([14]; Rate 62 g/ha): 40 | Plant response rating, Downy brome ([14]; Rate 125 g/ha): 50 | Plant response rating, Blackgrass ([15]; Rate 31 g/ha): 50 | Plant response rating, Blackgrass ([15]; Rate 62 g/ha): 80 | Plant response rating, Blackgrass ([15]; Rate 125 g/ha): 90 | Plant response rating, Lambsquarters ([16]; Rate 16 g/ha): 70 | Plant response rating, Lambsquarters ([16]; Rate 31 g/ha): 80 | Plant response rating, Lambsquarters ([16]; Rate 62 g/ha): 80 | Plant response rating, Lambsquarters ([16]; Rate 125 g/ha): 80 | Plant response rating, Redroot pigweed ([17]; Rate 31 g/ha): 90 | Plant response rating, Redroot pigweed ([17]; Rate 62 g/ha): 90 | Plant response rating, Redroot pigweed ([17]; Rate 125 g/ha): 100 | Plant response rating, Jointed goatgra ([18]; Rate 31 g/ha): 30 | Plant response rating, Jointed goatgra ([18]; Rate 62 g/ha): 40 | Plant response rating, Jointed goatgra ([18]; Rate 125 g/ha): 40 | Plant response rating, Lambsquarters ([19]; Rate 31 g/ha): 90 | Plant response rating, Lambsquarters ([19]; Rate 62 g/ha): 90 | Plant response rating, Lambsquarters ([19]; Rate 125 g/ha): 100
